Assays:
[1] = target: Collagenase 3 (Homo sapiens, UniProt P45452)
[2] = target: Neutrophil collagenase (Homo sapiens, UniProt P22894); settings: read-out: log(1/IC50) (converted)
Neutrophil collagenase, sequence (P22894 whole entry): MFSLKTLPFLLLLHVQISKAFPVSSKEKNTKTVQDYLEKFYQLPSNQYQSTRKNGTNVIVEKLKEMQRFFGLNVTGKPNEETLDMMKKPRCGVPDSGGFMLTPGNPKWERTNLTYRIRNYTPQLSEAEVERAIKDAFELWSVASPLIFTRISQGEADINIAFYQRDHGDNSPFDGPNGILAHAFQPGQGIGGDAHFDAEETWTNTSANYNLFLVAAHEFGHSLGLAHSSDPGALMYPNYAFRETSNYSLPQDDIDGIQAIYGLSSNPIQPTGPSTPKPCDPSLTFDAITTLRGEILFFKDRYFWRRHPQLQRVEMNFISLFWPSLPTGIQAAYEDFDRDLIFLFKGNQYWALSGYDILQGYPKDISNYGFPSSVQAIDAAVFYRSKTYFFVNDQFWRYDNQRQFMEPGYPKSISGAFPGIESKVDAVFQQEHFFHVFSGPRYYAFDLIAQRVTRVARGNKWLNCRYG

Compound	IC50 [1] [nM]	IC50 [2] [nM]
COc1ccc(S(=O)(=O)N2CCN(C(=O)C(O)C(C)C)CC2C(=O)NO)cc1 (stereo not given)	1	
COc1ccc(S(=O)(=O)N2CCN(C(=O)c3nnsc3C)CC2C(=O)NO)cc1 (stereo not given)	20.9	
COCCOC(=O)N1CCC(C(C(=O)O)N(Cc2cccnc2)S(=O)(=O)c2ccc(-c3ccc(OC)cc3)cc2)CC1 (stereo not given)	3.02	3.24
COc1ccc(S(=O)(=O)N2CCCN(C(=O)CNOC(=O)C(C)(C)C)CC2C(=O)NO)cc1 (stereo not given)	15.8	
